Test results taken from patent US20090022757A1, “Method for treating photoreceptor cell degeneration” (priority 2007, published 2009).

System: rat retinal photoreceptor
Experiment: Electroretinogram of rats treated with different MNU dosages
Details: for Number of Eyes with extinguished electroretinogram: n = 10

`CN(N=O)C(N)=O` [MNU, N-methyl-N-nitrosourea] was tested, and the “initial dosage that could cause maximum decrease of a-wave and b-wave amplitudes of electroretinogram” value was 40 mg/kg, the “lowest dosage which could shorten the a-wave and b-wave latent period of rats electroretinogram to the greatest extent” value was 40 mg/kg and the “a-wave amplitude of electroretinogram” value (MNU 30 mg/kg, 12 h) was 42.24 ± 7.71. The “a-wave latent period of electroretinogram” value (shortened to “a-wave latent period”) (MNU 30 mg/kg, 12 h) was 17.97 ± 2.50, the “b-wave amplitude of electroretinogram” value (MNU 30 mg/kg, 12 h) was 195.8 ± 33.45 and the “b-wave latent period of electroretinogram” value (MNU 30 mg/kg, 12 h) was 73.7 ± 6.94. The “Number of Eyes with extinguished electroretinogram” value (from here on “Number of Eyes”) (MNU 30 mg/kg, 12 h) was 0, the “a-wave amplitude of electroretinogram” value (MNU 30 mg/kg, 1 d) was 34.10 ± 6.35 and the “a-wave latent period” value (MNU 30 mg/kg, 1 d) was 17.82 ± 2.59. The “b-wave amplitude of electroretinogram” value (MNU 30 mg/kg, 1 d) was 153.6 ± 28.76, the “b-wave latent period of electroretinogram” value (MNU 30 mg/kg, 1 d) was 70.41 ± 6.11 and the “Number of Eyes” value (MNU 30 mg/kg, 1 d) was 0. For the same compound, the “a-wave amplitude of electroretinogram” value (MNU 30 mg/kg, 3 d) was 33.14 ± 9.15, the “a-wave latent period” value (MNU 30 mg/kg, 3 d) was 17.44 ± 2.40 and the “b-wave amplitude of electroretinogram” value (MNU 30 mg/kg, 3 d) was 132.0 ± 24.85. For the same compound, the “b-wave latent period of electroretinogram” value (MNU 30 mg/kg, 3 d) was 67.42 ± 7.05, the “Number of Eyes” value (MNU 30 mg/kg, 3 d) was 0 and the “a-wave amplitude of electroretinogram” value (MNU 30 mg/kg, 7 d) was 41.11 ± 10.14. The “a-wave latent period” value (MNU 30 mg/kg, 7 d) was 17.66 ± 2.55, the “b-wave amplitude of electroretinogram” value (MNU 30 mg/kg, 7 d) was 156.5 ± 34.85 and the “b-wave latent period of electroretinogram” value (MNU 30 mg/kg, 7 d) was 70.28 ± 6.02. For the same compound, the “Number of Eyes” value (MNU 30 mg/kg, 7 d) was 0, the “a-wave amplitude of electroretinogram” value (MNU 30 mg/kg, 10 d) was 44.17 ± 11.13 and the “a-wave latent period” value (MNU 30 mg/kg, 10 d) was 17.30 ± 2.24. The “b-wave amplitude of electroretinogram” value (MNU 30 mg/kg, 10 d) was 188.7 ± 27.7, the “b-wave latent period of electroretinogram” value (MNU 30 mg/kg, 10 d) was 70.31 ± 7.29 and the “Number of Eyes” value (MNU 30 mg/kg, 10 d) was 0. For the same compound, the “a-wave amplitude of electroretinogram” value (MNU 35 mg/kg, 12 h) was 40.34 ± 8.37, the “a-wave latent period” value (MNU 35 mg/kg, 12 h) was 17.32 ± 5.87 and the “b-wave amplitude of electroretinogram” value (MNU 35 mg/kg, 12 h) was 185.3 ± 23.41. The “b-wave latent period of electroretinogram” value (MNU 35 mg/kg, 12 h) was 73.61 ± 6.37, the “Number of Eyes” value (MNU 35 mg/kg, 12 h) was 0 and the “a-wave amplitude of electroretinogram” value (MNU 35 mg/kg, 1 d) was 33.20 ± 12.11. The “a-wave latent period” value (MNU 35 mg/kg, 1 d) was 16.98 ± 2.46, the “b-wave amplitude of electroretinogram” value (MNU 35 mg/kg, 1 d) was 107.52 ± 17.38 and the “b-wave latent period of electroretinogram” value (MNU 35 mg/kg, 1 d) was 73.12 ± 6.69. The “Number of Eyes” value (MNU 35 mg/kg, 1 d) was 0, the “a-wave amplitude of electroretinogram” value (MNU 35 mg/kg, 3 d) was 30.38 ± 9.61 and the “a-wave latent period” value (MNU 35 mg/kg, 3 d) was 16.83 ± 2.62. The “b-wave amplitude of electroretinogram” value (MNU 35 mg/kg, 3 d) was 104.88 ± 21.83, the “b-wave latent period of electroretinogram” value (MNU 35 mg/kg, 3 d) was 68.15 ± 6.68 and the “Number of Eyes” value (MNU 35 mg/kg, 3 d) was 0. For the same compound, the “a-wave amplitude of electroretinogram” value (MNU 35 mg/kg, 7 d) was 36.75 ± 7.28, the “a-wave latent period” value (MNU 35 mg/kg, 7 d) was 17.77 ± 2.25 and the “b-wave amplitude of electroretinogram” value (MNU 35 mg/kg, 7 d) was 135.44 ± 22.58. For the same compound, the “b-wave latent period of electroretinogram” value (MNU 35 mg/kg, 7 d) was 73.37 ± 7.73, the “Number of Eyes” value (MNU 35 mg/kg, 7 d) was 0 and the “a-wave amplitude of electroretinogram” value (MNU 35 mg/kg, 10 d) was 40.76 ± 8.92. For the same compound, the “a-wave latent period” value (MNU 35 mg/kg, 10 d) was 17.46 ± 2.41, the “b-wave amplitude of electroretinogram” value (MNU 35 mg/kg, 10 d) was 168.7 ± 32.14 and the “b-wave latent period of electroretinogram” value (MNU 35 mg/kg, 10 d) was 73.51 ± 5.61. For the same compound, the “Number of Eyes” value (MNU 35 mg/kg, 10 d) was 0, the “a-wave amplitude of electroretinogram” value (MNU 40 mg/kg, 12 h) was 17.18 ± 15.90 and the “a-wave latent period” value (MNU 40 mg/kg, 12 h) was 10.53 ± 9.18. The “b-wave amplitude of electroretinogram” value (MNU 40 mg/kg, 12 h) was 54.40 ± 46.33, the “b-wave latent period of electroretinogram” value (MNU 40 mg/kg, 12 h) was 41.09 ± 35.82 and the “Number of Eyes” value (MNU 40 mg/kg, 12 h) was 4. The “a-wave amplitude of electroretinogram” value (MNU 40 mg/kg, 1 d) was 9.44 ± 12.38, the “a-wave latent period” value (MNU 40 mg/kg, 1 d) was 7.02 ± 9.15 and the “b-wave amplitude of electroretinogram” value (MNU 40 mg/kg, 1 d) was 23.09 ± 30.15. The “b-wave latent period of electroretinogram” value (MNU 40 mg/kg, 1 d) was 27.85 ± 36.29, the “Number of Eyes” value (MNU 40 mg/kg, 1 d) was 6 and the “a-wave amplitude of electroretinogram” value (MNU 40 mg/kg, 3 d) was 3.62 ± 7.66. For the same compound, the “a-wave latent period” value (MNU 40 mg/kg, 3 d) was 3.17 ± 6.69, the “b-wave amplitude of electroretinogram” value (MNU 40 mg/kg, 3 d) was 12.23 ± 26.02 and the “b-wave latent period of electroretinogram” value (MNU 40 mg/kg, 3 d) was 12.20 ± 4.24. The “Number of Eyes” value (MNU 40 mg/kg, 3 d) was 8, the “a-wave amplitude of electroretinogram” value (MNU 40 mg/kg, 7 d) was 4.23 ± 9.27 and the “a-wave latent period” value (MNU 40 mg/kg, 7 d) was 3.37 ± 7.15. The “b-wave amplitude of electroretinogram” value (MNU 40 mg/kg, 7 d) was 13.14 ± 27.85 and the “b-wave latent period of electroretinogram” value (MNU 40 mg/kg, 7 d) was 12.33 ± 26.05.
